According to US8545903B2 (priority 2009, dated 2013):
pEC50, pIC50: −log10 of the molar value. Where two headings read alike, the source gives them in different places.

Key:
in vitro [1] = settings: dog
[2] = tested on: influenza virus H9N2 (A/Chicken/Korea/MS96/96); assay: in vitro; settings: dog
[3] = tested on: influenza virus H9N2 (A/Chicken/Korea/MS96/96); assay: microbe, parasite or virus in culture; settings: H9N2, MDCK, in Gallus gallus, read-out: EC50, 50% antiviral concentration
[4] = tested on: influenza virus H9N2 (A/Chicken/Korea/MS96/96); assay: in vitro; settings: dog; remark: listed apart in the source
[5] = tested on: influenza virus H9N2 (A/Chicken/Korea/MS96/96); assay: microbe, parasite or virus in culture; settings: H9N2, MDCK, in Gallus gallus, read-out: EC50, 50% antiviral concentration; remark: listed apart in the source
[6] = tested on: influenza virus H9N2 (A/Chicken/Korea/MS96/96); settings: read-out: EC50, 50% antiviral concentration
[7] = tested on: Madin-Darby canine kidney (MDCK, ATCC CCL-34) cell
[8] = tested on: influenza virus H9N2 (A/Chicken/Korea/MS96/96); settings: read-out: EC50, 50% antiviral concentration; remark: listed apart in the source
[9] = biological target: neuraminidase of recombinant rvH1N1 influenza A virus (A/Bervig_Mission/1/18) (Influenza A virus, UniProt Q9IGQ6); assay: biochemical
Chain of neuraminidase of recombinant rvH1N1 influenza A virus (A/Bervig_Mission/1/18) (Q9IGQ6 whole entry, looked up): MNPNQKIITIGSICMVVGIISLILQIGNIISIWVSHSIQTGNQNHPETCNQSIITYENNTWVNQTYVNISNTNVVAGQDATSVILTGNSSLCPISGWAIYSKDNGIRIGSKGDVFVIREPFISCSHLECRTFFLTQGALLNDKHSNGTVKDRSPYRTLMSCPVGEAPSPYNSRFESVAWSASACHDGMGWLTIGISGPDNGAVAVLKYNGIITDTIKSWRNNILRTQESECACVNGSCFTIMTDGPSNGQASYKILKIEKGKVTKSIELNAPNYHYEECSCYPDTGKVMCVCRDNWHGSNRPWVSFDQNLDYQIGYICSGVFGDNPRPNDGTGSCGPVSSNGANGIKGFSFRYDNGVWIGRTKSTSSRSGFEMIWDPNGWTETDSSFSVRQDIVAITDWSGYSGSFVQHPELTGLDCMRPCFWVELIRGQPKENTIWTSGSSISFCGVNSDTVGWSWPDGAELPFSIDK

[10] = in vivo; cited from earlier work
[11] = in vivo; cited from earlier work; remark: listed apart in the source
in vitro [12] = settings: dog, mdck
[13] = biological target: neuraminidase (R&D SYSTEM, 4858-NM) of recombinant rvH1N1 influenza A virus of 1918 Spanish flu virus (A/Bervig_Mission/1/18) (Influenza A virus, UniProt Q9IGQ6); assay: biochemical; set-up: species or system influenza A virus A/Bervig_Mission/1/18 (rvH1N1)
Chain of neuraminidase (R&D SYSTEM, 4858-NM) of recombinant rvH1N1 influenza A virus of 1918 Spanish flu virus (A/Bervig_Mission/1/18) (Q9IGQ6 36-469 limits assumed): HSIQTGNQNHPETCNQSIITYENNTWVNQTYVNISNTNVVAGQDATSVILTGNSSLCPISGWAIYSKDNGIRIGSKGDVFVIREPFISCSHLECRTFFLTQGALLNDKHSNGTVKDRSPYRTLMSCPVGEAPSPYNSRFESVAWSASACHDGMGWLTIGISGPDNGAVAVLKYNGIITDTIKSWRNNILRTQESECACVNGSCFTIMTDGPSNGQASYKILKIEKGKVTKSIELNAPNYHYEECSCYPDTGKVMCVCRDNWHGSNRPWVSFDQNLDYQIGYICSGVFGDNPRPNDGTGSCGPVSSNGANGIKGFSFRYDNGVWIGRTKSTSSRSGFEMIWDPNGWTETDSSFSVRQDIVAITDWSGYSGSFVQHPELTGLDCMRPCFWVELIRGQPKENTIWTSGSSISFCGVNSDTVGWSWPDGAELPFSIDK

[14] = tested on: influenza virus H9N2 (A/Chicken/Korea/MS96/96); assay: microbe, parasite or virus in culture; settings: H9N2, MDCK, in Gallus gallus, read-out: EC50, 50% antiviral concentration; remark: listed apart in the source
[15] = tested on: influenza virus H9N2 (A/Chicken/Korea/MS96/96); assay: microbe, parasite or virus in culture; settings: H9N2, MDCK, in Gallus gallus, read-out: EC50, 50% antiviral concentration; remark: listed apart in the source
[16] = read-out: Neuraminidase inhibitory activity (IC50) A/Bervig-Mission/1/18 (rvH1N1)

CCOC(=O)C1=C[C@@H](OC(CC)CC)[C@H](NC(C)=O)[C@@H](N)C1 [Tamiflu, reference compound] gave a CC50 (in vitro [1]) greater than 200 µM, a selectivity ratio [2] greater than 200 and a pEC50 [3] greater than 6.00. For the same compound, the selectivity ratio [4] was greater than 200 and the pEC50 [5] was greater than 6.00.

Compound Bisdemethoxycurcumin has a pEC50 [6] of 3.74, a CC50 [7] greater than 200 µM and a pEC50 [8] of less than 3.70. For the same compound, the pIC50 [9, 16] was 5.22.

Compound Demethoxycurcumin has a CC50 [7] of 97 µM and a pIC50 [9, 16] of 5.52.

For CC(=O)N[C@H]1[C@H]([C@H](O)[C@H](O)CO)OC(C(=O)O)=C[C@@H]1N=C(N)N [Zanamivir], the “release from the kidney” value [10] is listed as “quick release from the kidney”.

COc1cc(/C=C/C(=O)/C=C(O)/C=C/c2ccc(O)c(OC)c2)ccc1O [Curcumin] gave a CC50 (in vitro [1]) of 94.1 µM and a pIC50 [9] of 5.52.

In the case of CCOC(=O)C1=C[C@@H](OC(CC)CC)[C@H](NC(C)=O)[C@@H](N)C1 [Oseltamivir], the side effects [11] is given as “severe vomiting”.

In the case of CC(N)C12CC3CC(CC(C3)C1)C2 (centres unmarked) [Rimatadine], the side effects [11] is listed as “severe side effects occur in the nervous system and stomach”.

Compound COc1cc(/C=C/C(=O)/C=C(O)/C=C/c2ccc(O)cc2)ccc1O [Demethoxycurcumin] has a CC50 (in vitro [12]) of 97 µM and a pIC50 [13] of 5.52.

In the case of O=C(/C=C(O)/C=C/c1ccc(O)cc1)/C=C/c1ccc(O)cc1 [Bisdemethoxycurcumin], the pEC50 [14] was 3.74, the CC50 (in vitro [12]) was greater than 200 µM and the pIC50 [13] was 5.22. It also gave a pEC50 [15] of less than 3.70.

For NC12CC3CC(CC(C3)C1)C2 [Amatadine], the side effects [11] is listed as “severe side effects occur in the nervous system and stomach”.
